These results are taken from publication PMC8538004, “Identification of a Novel Neuropeptide S Receptor Antagonist Scaffold Based on the SHA-68 Core” (Pharmaceuticals, 2021).

Experiment [1] relates to NPSR. The arrangement: method as in PMID 24964000, PMID 20615693, PMID 18337476, PMID 24171469, PMID 20510609. The note with it: Figure 1, known NPSR antagonists; cited from earlier work.
Experiment [2] addresses T1, human NPSR-107I (Homo sapiens, UniProt Q6W5P4, N107I).
T1 construct: expressed in transfected cells
T1 sequence (Q6W5P4 1-371 N107I): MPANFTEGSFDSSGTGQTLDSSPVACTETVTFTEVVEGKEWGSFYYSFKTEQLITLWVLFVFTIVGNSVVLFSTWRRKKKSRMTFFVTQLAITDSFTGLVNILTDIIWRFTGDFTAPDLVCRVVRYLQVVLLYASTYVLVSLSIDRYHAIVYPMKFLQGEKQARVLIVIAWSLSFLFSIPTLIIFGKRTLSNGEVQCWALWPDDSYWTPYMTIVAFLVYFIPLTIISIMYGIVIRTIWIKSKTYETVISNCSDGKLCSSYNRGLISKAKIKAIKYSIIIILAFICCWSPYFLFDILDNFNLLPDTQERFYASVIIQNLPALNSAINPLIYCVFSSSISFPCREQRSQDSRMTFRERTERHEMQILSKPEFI
Put plainly: Ca+2 mobilization assay (apparent Ke against NPS). Type of experiment: cell-based. As to conditions: for Kb: Calcium Mobilization, CHO-Gα16-hNPSR-107I cells, shift of NPS EC50; for Loss of antagonist activity compared to SHA: compared with SHA-66 (Ke = 10 nM); for NPSR antagonist activity in words: calcium mobilization, SAR discussion. The method, then:
A stable cell line overexpressing the human NPSR-107I was created in CHO-Gαq16 cells (RD-HGA16, Molecular Devices), as previously described. Briefly, CHO-Gαq16 cells were transfected with pcDNA 3.1 human NPSR-107I using Lipofectamine reagent. Transfected cells were plated into 10 cm^2 dishes 24 h post-transfection and were selected using Geneticin. After 2 weeks, individual clones were selected, grown to confluence, and screened in a functional 96-well calcium mobilization assay that measured the response to NPS (100 nM final). […] A final working clone was chosen for all subsequent studies based on NPS potency and the calcium mobilization signal window. CHO-Gα16-hNPSR-107I cells were cultured in Ham’s F12 media supplemented with 10% FBS, 100 units/mL penicillin, 100 μg/mL streptomycin, 200 μg/mL hygromycin, and 400 μg/mL geneticin. Media were purchased from HyClone (GE Life Sciences); FBS, penicillin/streptomycin, hygromycin, and geneticin were purchased from Invitrogen (Thermo Scientific). The day before the assay, cells were plated into 96-well black-walled assay plates at 25,000–40,000 cells/well in growth medium without selection antibiotics. Cells were incubated overnight at 37 °C, 5% CO2. The FLIPR Calcium 5 assay kit (Molecular Devices) was used according to the manufacturer’s instructions with minor modifications. Briefly, reconstituted dye was diluted in pre-warmed assay buffer (HBSS, 20 mM HEPES, 2.5 mM probenecid, pH 7.4 at 37 °C). Growth medium was removed, and the cells were gently washed with assay buffer. Calcium 5 dye was added to the cells and the plate was incubated for 45 min at 37 °C, 5% CO2. A single concentration of test compound and 10-point concentration–response curves of NPS (ranging from 100 nM to 1 pM) were prepared at 10× the desired final concentration. Cells were pretreated with the test compound or vehicle in a final concentration of 0.25% BSA/1% DMSO for 15 min at 37 °C. Assay plates were read with a FlexStation II instrument (excitation at 485 nm, detection at 525 nm, Molecular Devices). Calcium-mediated changes in fluorescence were monitored every 1.5 s over a 90 s time period. NPS was added during the read and the maximum kinetic […] (SoftMax [Max-Min], Molecular Devices) in relative fluorescent units (RFU) was measured. Data were fitted to a three-parameter logistic curve to generate EC50 values (GraphPad Prism 6.0). Antagonism was quantified by measuring the ratio of equi-active concentrations of agonist measured in the presence or absence of the antagonist. Apparent Ke values were calculated using the equation Ke = [L]/((EC50^+/EC50^−) − 1), where [L] is the concentration of test compound, EC50^+ is the EC50 of NPS with test compound, and EC50^– is the EC50 of NPS alone. Ke values were considered valid when the EC50^+/EC50^− ratio was at least 4. HBSS and HEPES were purchased from Gibco (Thermo Scientific); probenecid, BSA, and DMSO were purchased from Sigma-Aldrich.
A general note: Calcium flux is commonly read through the fluorescence of an indicator in the cells.

Broadly, the IC50 is the concentration that inhibits the measured activity by half. In the case of `CCC(C)(CCN1CCOCC1)N(Cc1cc2ccccc2n(C)c1=O)C(=O)C1CCCCC1` (stereo not shown) [A], the IC50 in experiment [1] is 23 nM.

For the compound `COc1ccc2c(c1)C(CC1CCOCC1)(c1ccc(Cl)cc1)n1ccnc1-2` (stereo not shown) [B], in experiment [1], the IC50 is 82 nM. Take `O=C(c1ccccc1N1Cn2c(ccc2-c2ccccc2)C1=O)N1CCCCC1` [C]: in experiment [1], the IC50 was 10 nM. As to `O=C1OC(c2ccccc2)(c2ccccc2)C2=C1CCN(C(=O)NCc1ccccc1)C2` [Compound 1, N-Benzyl-1-oxo-3,3-diphenyl-1H,3H,4H,5H,6H,7H-furo[3,4-c]pyridine-5-carboxamide], in experiment [2], the Kb worked out at 522 nM and the “Loss of antagonist activity compared to SHA” value is listed as “roughly 50 fold”. Regarding `CCCCNC(=O)N1CCC2=C(C1)C(c1ccccc1)(c1ccccc1)OC2=O` [Compound 2, N-Butyl-1-oxo-3,3-diphenyl-1H,3H,4H,5H,6H,7H-furo[3,4-c]pyridine-5-carboxamide], in experiment [2], the Kb amounted to 515 nM and the “Loss of antagonist activity compared to SHA” value is recorded as “roughly 50 fold”.

In the case of `O=C1OC(c2ccccc2)(c2ccccc2)[C@H]2CN(C(=O)NCc3ccccc3)CC[C@@H]12` [Compound 3, (3,7)-N-Benzyl-1-oxo-3,3-diphenyl-octahydrofuro[3,4-c]pyridine-5-carboxamide], in experiment [2], the Kb is 761 nM and the “NPSR antagonist activity in words” value was “lacked antagonist activity”. In the case of `CCCCNC(=O)N1CC[C@H]2C(=O)OC(c3ccccc3)(c3ccccc3)[C@H]2C1` [Compound 4, (3,7)-N-Butyl-1-oxo-3,3-diphenyl-octahydrofuro[3,4-c]pyridine-5-carboxamide], the “NPSR antagonist activity in words” value in experiment [2] is given as “lacked antagonist activity”. In the case of `O=C1OC(c2ccccc2)(c2ccccc2)[C@@H]2CN(C(=O)NCc3ccccc3)CC[C@@H]12` [Compound 5, (3,7)-N-Benzyl-1-oxo-3,3-diphenyl-octahydrofuro[3,4-c]pyridine-5-carboxamide], the Kb in experiment [2] was 170 nM. With `CCCCNC(=O)N1CC[C@H]2C(=O)OC(c3ccccc3)(c3ccccc3)[C@@H]2C1` [Compound 6, (3,7)-N-Butyl-1-oxo-3,3-diphenyl-octahydrofuro[3,4-c]pyridine-5-carboxamide], in experiment [2], the Kb was 260 nM. In the case of `O=C1OC(c2ccccc2)(c2ccccc2)C2=C1CN(C(=O)NCc1ccccc1)CC2` [Compound 7, N-Benzyl-3-oxo-1,1-diphenyl-1H,3H,4H,5H,6H,7H-furo[3,4-c]pyridine-5-carboxamide], in experiment [2], the Kb came to 1130 nM and the “NPSR antagonist activity in words” value was “significant loss of potency”. Regarding `O=C1OC2(C3=C1CCN(C(=O)NCc1ccccc1)C3)c1ccccc1CCc1ccccc12` [Compound 9, N-Benzyl-3-oxo-4,5,6,7-tetrahydro-3H-spiro[furo[3,4-c]pyridine-1,2′-tricyclo[9.4.0.0^{3,8}]pentadecane]-1′(11′),3′,5′,7′,12′,14′-hexaene-6-carboxamide], the Kb in experiment [2] amounted to 1660 nM. Consider `CCCCC1(c2ccccc2)OC(=O)C2=C1CN(C(=O)NCc1ccccc1)CC2` (stereo not shown) [Compound 11, N-Benzyl-3-butyl-1-oxo-3-phenyl-1H,3H,4H,5H,6H,7H-furo[3,4-c]pyridine-5-carboxamide], for which the Kb in experiment [2] was determined as 165 nM. As to `O=C1OC(Cc2ccccc2)(c2ccccc2)C2=C1CCN(C(=O)NCc1ccccc1)C2` (stereo not shown) [Compound 12, N-3-Dibenzyl-1-oxo-3-phenyl-1H,3H,4H,5H,6H,7H-furo[3,4-c]pyridine-5-carboxamide], the Kb in experiment [2] worked out at 606 nM.

Consider `CC(C)(C)CC1(c2ccccc2)OC(=O)C2=C1CN(C(=O)NCc1ccccc1)CC2` (stereo not shown) [Compound 13, N-Benzyl-3-(2,2-dimethylpropyl)-1-oxo-3-phenyl-1H,3H,4H,5H,6H,7H-furo[3,4-c]pyridine-5-carboxamide], for which the Kb in experiment [2] is 146 nM. `CC(C)CC1(c2ccccc2)OC(=O)C2=C1CN(C(=O)NCc1ccccc1)CC2` (stereo not shown) [Compound 14, N-Benzyl-3-(2-methylpropyl)-1-oxo-3-phenyl-1H,3H,4H,5H,6H,7H-furo[3,4-c]pyridine-5-carboxamide]: the Kb in experiment [2] came out at 118 nM. On the same count and under the same terms, the result for `CC(C)CC1(c2ccccc2)OC(=O)C2=C1CN(C(=O)NCc1ccccc1)CC2` (stereo not shown) [Compound 14a, N-Benzyl-3-(2-methylpropyl)-1-oxo-3-phenyl-1H,3H,4H,5H,6H,7H-furo[3,4-c]pyridine-5-carboxamide] reads 432 nM; that for `CC(C)CC1(CC(C)C)OC(=O)C2=C1CN(C(=O)NCc1ccccc1)CC2` [Compound 16, N-Benzyl-3,3-bis(2-methylpropyl)-1-oxo-1H,3H,4H,5H,6H,7H-furo[3,4-c]pyridine-5-carboxamide], 734 nM.

Take `CC(C)CC1(c2ccc3ccccc3c2)OC(=O)C2=C1CN(C(=O)NCc1ccccc1)CC2` (stereo not shown) [Compound 22, N-Benzyl-3-(2-methylpropyl)-3-(naphthalen-2-yl)-1-oxo-1H,3H,4H,5H,6H,7H-furo[3,4-c]pyridine-5-carboxamide]: in experiment [2], the Kb turned out to be 500 nM.

With `CC(C)CC1(c2ccccc2O)OC(=O)C2=C1CN(C(=O)NCc1ccccc1)CC2` (stereo not shown) [Compound 23, N-Benzyl-3-(2-hydroxyphenyl)-3-(2-methylpropyl)-1-oxo-1H,3H,4H,5H,6H,7H-furo[3,4-c]pyridine-5-carboxamide], the Kb in experiment [2] was determined as 1500 nM. The same measure, in the same setting: the result for `CC(C)CC1(c2ccccc2OCc2ccccc2)OC(=O)C2=C1CN(C(=O)NCc1ccccc1)CC2` (stereo not shown) [Compound 24, N-Benzyl-3-[2-(benzyloxy)phenyl]-3-(2-methylpropyl)-1-oxo-1H,3H,4H,5H,6H,7H-furo[3,4-c]pyridine-5-carboxamide] reads 572 nM; that for `CC(C)CC1(c2cccc(Cl)c2)OC(=O)C2=C1CN(C(=O)NCc1ccccc1)CC2` (stereo not shown) [Compound 25, N-Benzyl-3-(3-chlorophenyl)-3-(2-methylpropyl)-1-oxo-1H,3H,4H,5H,6H,7H-furo[3,4-c]pyridine-5-carboxamide], 136 nM. For `CCCCNC(=O)N1CCC2=C(C1)C(CC(C)C)(c1ccccc1)OC2=O` (stereo not shown) [Compound 26, N-Butyl-3-(2-methylpropyl)-1-oxo-3-phenyl-1H,3H,4H,5H,6H,7H-furo[3,4-c]pyridine-5-carboxamide], in experiment [2], the Kb is 238 nM and the “NPSR antagonist activity in words” value is listed as “reduction in potency”. The like results for `CC(C)CC1(c2ccccc2)OC(=O)C2=C1CN(C(=O)NCCN1CCCCC1)CC2` (stereo not shown) [Compound 27, 3-(2-Methylpropyl)-1-oxo-3-phenyl-N-[2-(piperidin-1-yl)Ethyl]-1H,3H,4H,5H,6H,7H-furo[3,4-c]pyridine-5-carboxamide] were, in that order, 566 nM and “reduction in potency”. The like results for `CC(C)CC1(c2ccccc2)OC(=O)C2=C1CN(C(=S)NCCN1CCCCC1)CC2` (stereo not shown) [Compound 28, 3-(2-Methylpropyl)-1-oxo-3-phenyl-N-[2-(piperidin-1-yl)ethyl]-1H,3H,4H,5H,6H,7H-furo[3,4-c]pyridine-5-carbothioamide] were, in that order, 386 nM and “reduction in potency”. Regarding `CC(C)CC1(c2ccccc2)OC(=O)N2CCN(C(=O)NCc3ccccc3)CC21` (stereo not shown) [Compound 29, N-Benzyl-3-(2-methylpropyl)-1-oxo-3-phenyl-hexahydro-1H-[1,3]oxazolo[3,4-a]piperazine-5-carboxamide], the “NPSR antagonist activity in words” value in experiment [2] is “completely inactive”. `Cc1c(P(=S)(c2ccccc2)c2ccccc2)n2ccccc2[n+]1C/C=C/c1ccccc1` [D]: the IC50 in experiment [1] was 9.6 nM. Regarding `O=C(NCCN1CCCCC1)N1CCN2C(=O)OC(c3ccccc3)(c3ccccc3)[C@H]2C1` [RTI-118], the Ke in experiment [1] was 36 nM.
